Active and inactive are the calls of the source. The rule behind the calls is not given here.
Legend:
Type in all cases: protein assay
[1] = target: T1, Alpha-1,2-mannosidase family protein (BT_1032) (Bacteroides thetaiotaomicron) (UniProt Q8A8Y5); assay: Activity of Bacteroides thetaiotaomicron GH92 alpha-mannosidase 1032 assessed as mannose release at 1 mM after 16 hrs by HPLC relative to untreated control
T1 sequence (whole entry): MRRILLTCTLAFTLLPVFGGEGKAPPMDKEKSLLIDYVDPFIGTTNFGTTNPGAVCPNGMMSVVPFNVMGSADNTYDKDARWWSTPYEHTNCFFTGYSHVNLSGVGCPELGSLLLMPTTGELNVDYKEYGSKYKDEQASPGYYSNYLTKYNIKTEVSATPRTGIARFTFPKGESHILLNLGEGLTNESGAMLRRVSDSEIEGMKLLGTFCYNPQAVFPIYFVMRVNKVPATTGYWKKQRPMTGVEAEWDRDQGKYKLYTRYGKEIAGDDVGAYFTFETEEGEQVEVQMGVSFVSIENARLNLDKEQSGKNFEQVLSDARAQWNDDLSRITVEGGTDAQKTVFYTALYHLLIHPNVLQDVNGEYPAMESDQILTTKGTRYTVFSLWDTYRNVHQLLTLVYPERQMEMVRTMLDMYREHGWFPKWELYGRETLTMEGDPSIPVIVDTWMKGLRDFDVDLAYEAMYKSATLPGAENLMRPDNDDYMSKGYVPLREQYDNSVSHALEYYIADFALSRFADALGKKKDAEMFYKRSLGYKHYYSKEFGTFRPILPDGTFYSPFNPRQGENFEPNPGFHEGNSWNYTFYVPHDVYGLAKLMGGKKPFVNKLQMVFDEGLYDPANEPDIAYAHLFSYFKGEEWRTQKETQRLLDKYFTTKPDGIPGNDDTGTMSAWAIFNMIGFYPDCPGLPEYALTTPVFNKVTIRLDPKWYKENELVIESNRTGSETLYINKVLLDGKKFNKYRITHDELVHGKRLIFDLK

[2] = target: T2, Alpha-1,2-mannosidase (BT_4092) (Bacteroides thetaiotaomicron) (UniProt Q8A0C9); assay: Activity of Bacteroides thetaiotaomicron GH92 alpha-mannosidase GH92 alpha-mannosidase 4092 assessed as mannose release at 1 mM after 16 hrs by HPLC relative to untreated control after 16 hrs by HPLC
T2 sequence (whole entry): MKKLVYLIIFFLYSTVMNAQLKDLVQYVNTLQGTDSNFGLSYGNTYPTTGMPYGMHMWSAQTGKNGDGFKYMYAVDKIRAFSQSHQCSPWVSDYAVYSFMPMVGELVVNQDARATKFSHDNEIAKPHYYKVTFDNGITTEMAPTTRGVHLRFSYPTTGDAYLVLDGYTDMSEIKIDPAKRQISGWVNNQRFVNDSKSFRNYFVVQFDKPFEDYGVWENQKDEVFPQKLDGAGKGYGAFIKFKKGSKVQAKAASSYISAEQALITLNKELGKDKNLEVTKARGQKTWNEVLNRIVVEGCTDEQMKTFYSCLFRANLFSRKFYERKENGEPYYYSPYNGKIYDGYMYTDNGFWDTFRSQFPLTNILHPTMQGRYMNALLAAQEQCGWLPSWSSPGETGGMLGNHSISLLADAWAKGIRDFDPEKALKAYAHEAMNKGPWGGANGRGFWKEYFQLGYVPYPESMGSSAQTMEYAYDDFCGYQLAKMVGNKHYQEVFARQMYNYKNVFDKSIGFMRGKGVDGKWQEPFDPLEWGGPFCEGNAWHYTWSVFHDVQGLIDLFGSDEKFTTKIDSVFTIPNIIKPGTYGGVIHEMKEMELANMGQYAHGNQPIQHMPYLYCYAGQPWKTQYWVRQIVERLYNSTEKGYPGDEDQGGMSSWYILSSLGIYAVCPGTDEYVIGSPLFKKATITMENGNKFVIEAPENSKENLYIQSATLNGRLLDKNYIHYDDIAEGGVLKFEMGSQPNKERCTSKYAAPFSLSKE

[3] = target: T3, Alpha-1,2-mannosidase, putative (BT_4073) (Bacteroides thetaiotaomicron) (UniProt Q8A0E8); assay: Activity of Bacteroides thetaiotaomicron GH92 alpha-mannosidase GH92 alpha-mannosidase 4073 assessed as mannose release at 1 mM after 16 hrs by HPLC relative to untreated control after 16 hrs by HPLC
T3 sequence (whole entry): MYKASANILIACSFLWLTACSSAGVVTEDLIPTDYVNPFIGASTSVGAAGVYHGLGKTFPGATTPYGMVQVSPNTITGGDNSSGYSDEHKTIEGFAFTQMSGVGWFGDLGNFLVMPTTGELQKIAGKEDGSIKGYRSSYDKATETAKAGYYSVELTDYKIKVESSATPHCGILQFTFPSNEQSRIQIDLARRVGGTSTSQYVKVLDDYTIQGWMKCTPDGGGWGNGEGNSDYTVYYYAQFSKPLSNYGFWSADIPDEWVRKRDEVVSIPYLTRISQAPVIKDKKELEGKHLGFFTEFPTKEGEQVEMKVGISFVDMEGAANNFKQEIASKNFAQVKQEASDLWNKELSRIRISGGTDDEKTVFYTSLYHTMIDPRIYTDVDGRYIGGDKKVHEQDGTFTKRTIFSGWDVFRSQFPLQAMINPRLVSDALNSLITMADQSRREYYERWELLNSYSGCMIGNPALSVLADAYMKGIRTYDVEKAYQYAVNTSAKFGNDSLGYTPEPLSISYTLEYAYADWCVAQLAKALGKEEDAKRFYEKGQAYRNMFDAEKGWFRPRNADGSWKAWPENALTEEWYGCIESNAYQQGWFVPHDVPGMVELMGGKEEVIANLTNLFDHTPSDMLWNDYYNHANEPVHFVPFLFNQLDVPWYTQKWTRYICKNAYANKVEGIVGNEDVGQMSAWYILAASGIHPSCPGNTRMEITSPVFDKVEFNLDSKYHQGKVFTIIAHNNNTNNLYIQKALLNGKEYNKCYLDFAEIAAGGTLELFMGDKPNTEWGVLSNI

| Activity [1] | Activity [2] | Activity [3] | SMILES |
| --- | --- | --- | --- |
| inactive | 0.73% | 100% | OC[C@H]1O[C@H](O[C@H]2[C@H](O)[C@H](O)[C@@H](O)O[C@@H]2CO)[C@@H](O)[C@@H](O)[C@@H]1O |
| inactive | inactive | inactive | OC[C@H]1O[C@H](OC[C@H]2O[C@H](O)[C@@H](O)[C@@H](O)[C@@H]2O)[C@@H](O)[C@@H](O)[C@@H]1O |
| inactive | 100% | inactive | OC[C@H]1O[C@H](O[C@H]2[C@@H](O)[C@H](O)[C@@H](CO)O[C@@H]2O)[C@@H](O)[C@@H](O)[C@@H]1O |
| inactive | 0.34% | inactive | OC[C@H]1O[C@H](O[C@@H]2[C@H](O)[C@@H](O)O[C@H](CO)[C@H]2O)[C@@H](O)[C@@H](O)[C@@H]1O |
